From ChEMBL document CHEMBL3885861, “Open TG-GATES”

Organism: Rattus norvegicus
Assay: Open TG-GATES - Regimen: Single
Format: toxicity, organism-based, Sprague-Dawley
Parameters: regimen Single, gender Male, age 6 weeks
Conditions: in vivo, po, 1 mg/kg, route gavage, dose level Low; for APTT / Bas / Eos / Fbg / Hb / Ht / Lym / MCH / MCHC / MCV / Mono / Neu / PT / Plat / RBC / Ret / WBC: tissue Blood; for KIDNEY_L / KIDNEY_R / KIDNEY_TOTAL: tissue Kidney; for LIVER: tissue Liver; for A/G / ALP / ALT / AST / BUN / CRE / Ca / Cl / DBIL / GLC / IP / K / LDH / Na / PL / RALB / TBIL / TC / TG / TP / gamma-GTP: tissue Plasma

Question: Which results are given for `CN1C(C(=O)Nc2ccccn2)=C(O)c2sc(Cl)cc2S1(=O)=O` [LORNOXICAM]?
Answer: TERMINAL_BW (3 h): 222.5 g; APTT (3 h): 19.4 s; Bas (3 h): 0.6%; Eos (3 h): 1%; Fbg (3 h): 219 mg/dL; Hb (3 h): 13.5 g/dL; Ht (3 h): 39.8%; Lym (3 h): 78.2%; MCH (3 h): 21.5 pg; MCHC (3 h): 33.9%; MCV (3 h): 63.4 fL; Mono (3 h): 2.6%; Neu (3 h): 17.4%; PT (3 h): 11.6 s; Plat (3 h): 128.4 x10_4/uL; RBC (3 h): 627.6 x10_4/ul; Ret (3 h): 7%; WBC (3 h): 99.9 x10_2/uL; KIDNEY_L (3 h): 1 g; KIDNEY_R (3 h): 1 g; KIDNEY_TOTAL (3 h): 2 g; LIVER (3 h): 10 g; A/G (3 h): 1.7; ALP (3 h): 878.4 IU/L; ALT (3 h): 40.6 IU/L; AST (3 h): 71.8 IU/L; BUN (3 h): 11 mg/dL; CRE (3 h): 0.3 mg/dL; Ca (3 h): 10.7 mg/dL; Cl (3 h): 102.6 meq/L; DBIL (3 h): 0.072 mg/dL; GLC (3 h): 194.2 mg/dL; IP (3 h): 9.2 mg/dL; K (3 h): 3.7 meq/L; LDH (3 h): 172 IU/L; Na (3 h): 140.4 meq/L; PL (3 h): 149.8 mg/dL; RALB (3 h): 3.5 g/dL; TBIL (3 h): 0.1 mg/dL; TC (3 h): 81.8 mg/dL; TG (3 h): 64.2 mg/dL; TP (3 h): 5.6 g/dL; gamma-GTP (3 h): 1.2 IU/L; TERMINAL_BW (6 h): 223 g; APTT (6 h): 19.9 s; Bas (6 h): 0.8%; Eos (6 h): 1%; Fbg (6 h): 211 mg/dL; Hb (6 h): 13.1 g/dL; Ht (6 h): 38.9%; Lym (6 h): 74.8%; MCH (6 h): 20.8 pg; MCHC (6 h): 33.8%; MCV (6 h): 61.7 fL; Mono (6 h): 3.2%; Neu (6 h): 19.8%; PT (6 h): 12.2 s; Plat (6 h): 126.1 x10_4/uL; RBC (6 h): 629.8 x10_4/ul; Ret (6 h): 6.7%; WBC (6 h): 117.6 x10_2/uL; KIDNEY_L (6 h): 1 g; KIDNEY_R (6 h): 1 g; KIDNEY_TOTAL (6 h): 2 g; LIVER (6 h): 9.3 g; A/G (6 h): 1.7; ALP (6 h): 908.8 IU/L; ALT (6 h): 44.4 IU/L; AST (6 h): 79.6 IU/L; BUN (6 h): 11.2 mg/dL; CRE (6 h): 0.3 mg/dL; Ca (6 h): 10.6 mg/dL; Cl (6 h): 104 meq/L; DBIL (6 h): 0.074 mg/dL; GLC (6 h): 190.2 mg/dL; IP (6 h): 8.6 mg/dL; K (6 h): 4 meq/L; LDH (6 h): 184.8 IU/L; Na (6 h): 140.6 meq/L; PL (6 h): 134.8 mg/dL; RALB (6 h): 3.5 g/dL; TBIL (6 h): 0.1 mg/dL; TC (6 h): 72.2 mg/dL; TG (6 h): 61.8 mg/dL; TP (6 h): 5.5 g/dL; gamma-GTP (6 h): 1.2 IU/L; TERMINAL_BW (9 h): 220.2 g; APTT (9 h): 19.1 s; Bas (9 h): 0.6%; Eos (9 h): 0.8%; Fbg (9 h): 220.4 mg/dL; Hb (9 h): 13.5 g/dL; Ht (9 h): 40.3%; Lym (9 h): 75%; MCH (9 h): 21.2 pg; MCHC (9 h): 33.5%; MCV (9 h): 63.3 fL; Mono (9 h): 3.4%; Neu (9 h): 20.4%; PT (9 h): 12.2 s; Plat (9 h): 119.8 x10_4/uL; RBC (9 h): 636.4 x10_4/ul; Ret (9 h): 7.4%; WBC (9 h): 109.6 x10_2/uL; KIDNEY_L (9 h): 1 g; KIDNEY_R (9 h): 1 g; KIDNEY_TOTAL (9 h): 2 g; LIVER (9 h): 8.9 g; A/G (9 h): 1.6; ALP (9 h): 866.2 IU/L; ALT (9 h): 37.8 IU/L; AST (9 h): 68.6 IU/L; BUN (9 h): 10.6 mg/dL; CRE (9 h): 0.3 mg/dL; Ca (9 h): 10.5 mg/dL; Cl (9 h): 103 meq/L; DBIL (9 h): 0.072 mg/dL; GLC (9 h): 197.8 mg/dL; IP (9 h): 9.1 mg/dL; K (9 h): 4.1 meq/L; LDH (9 h): 158.6 IU/L; Na (9 h): 141 meq/L; PL (9 h): 132.8 mg/dL; RALB (9 h): 3.4 g/dL; TBIL (9 h): 0.1 mg/dL; TC (9 h): 73.2 mg/dL; TG (9 h): 57.8 mg/dL; TP (9 h): 5.5 g/dL; gamma-GTP (9 h): 1.2 IU/L; TERMINAL_BW (24 h): 238.6 g; APTT (24 h): 19.3 s; Bas (24 h): 0.4%; Eos (24 h): 0.8%; Fbg (24 h): 251 mg/dL; Hb (24 h): 13 g/dL; Ht (24 h): 38.9%; Lym (24 h): 69.4%; MCH (24 h): 21.3 pg; MCHC (24 h): 33.4%; MCV (24 h): 63.6 fL; Mono (24 h): 3.2%; Neu (24 h): 26%; PT (24 h): 11.8 s; Plat (24 h): 121.2 x10_4/uL; RBC (24 h): 612.8 x10_4/ul; Ret (24 h): 6.9%; WBC (24 h): 134.5 x10_2/uL; KIDNEY_L (24 h): 1 g; KIDNEY_R (24 h): 1 g; KIDNEY_TOTAL (24 h): 2 g; LIVER (24 h): 11.4 g; A/G (24 h): 1.5; ALP (24 h): 822 IU/L; ALT (24 h): 39.6 IU/L; AST (24 h): 68.8 IU/L; BUN (24 h): 14.8 mg/dL; CRE (24 h): 0.4 mg/dL; Ca (24 h): 10.8 mg/dL; Cl (24 h): 104 meq/L; DBIL (24 h): 0.098 mg/dL; GLC (24 h): 203.6 mg/dL; IP (24 h): 7.6 mg/dL; K (24 h): 4.1 meq/L; LDH (24 h): 190.4 IU/L; Na (24 h): 141 meq/L; PL (24 h): 145.2 mg/dL; RALB (24 h): 3.2 g/dL; TBIL (24 h): 0.2 mg/dL; TC (24 h): 73.8 mg/dL; TG (24 h): 100.2 mg/dL; TP (24 h): 5.4 g/dL; gamma-GTP (24 h): 1.4 IU/L
